Laboratory results from patent US20020173468A1, “MODIFIED CYTOSTATIC AGENTS” (priority 1996, published 2002).
Counter-ions that a name gives are not always drawn.

What was measured:
Format in all cases: cell-based
[1] = system: HT 29 human colonic tumour cell line; assay: Growth inhibition test (MTT) for cytotoxic properties, HT 29; conditions: HT 29 cells
Experimental: (§1) 1. Growth Inhibition Test for the Determination of Cytotoxic Properties
(§2) They were then trypsinized and taken up in RPMI plus 10% FCS to give a cell count of 50,000 cells/ml. 100 μl of cell suspension/well were added to a 96 microwell plate and incubated for 1 day at 37° C. in a CO2 incubator. A further 100 μl of RPMI medium and 1 μl of DMSO were then added with the test substances. The growth was checked after day 3 and day 6. To do this, 40 μl of MTT solution (3-(4,5-dimethylthiazol-2-yl)-2,5-diphenyl-tetrazolin bromide) were added to each microwell at a starting concentration of 5 mg/ml of H2O. Incubation was carried out at 37° C. for 5 hours in the CO2 incubator. The medium was then aspirated and 100 μl of i-propanol/well were added. After shaking for 30 min with 100 μl of H2O, the extinction was measured at 540 nm using a Titertek Multiskan MCC/340 (flow).
(§3) The cytotoxic action is indicated in Table 1 as an IC50 value in each case for the SW 480 and HT 29 and B16F10 cell lines: […]

[2] = system: SW 480 human colonic tumour cell line; assay: Growth inhibition test (MTT) for cytotoxic properties, SW 480; conditions: SW 480 cells
Experimental: as §1, §2, §3

[3] = system: B16F10 mouse melanoma cell line; assay: Growth inhibition test (MTT) for cytotoxic properties, B16F10; conditions: B16F10 cells
Experimental: as §1, §2, §3

`CC(NC(=S)Nc1ccc(O)cc1)C(=O)NC1C=CCC2CN(c3c(F)cc4c(=O)c(C(=O)O)cn(C5CC5)c4c3Cl)CC21` (racemic) [2.1), N-[N-(4-Hydroxy-phenylamino-thiocarbonyl)-alanyl]-quinolone-a] gave an IC50 [1] of 9000 nM, an IC50 [2] of 20000 nM and an IC50 [3] of 9000 nM.

`CC(NC(=S)Nc1ccc(O)cc1)C(=O)NC1C=CCC2CN(c3c(F)cc4c(=O)c(C(=O)O)cn(C5CC5)c4c3Cl)CC21` (racemic) [2.2), N-[N-(4-Hydroxy-phenylamino-thiocarbonyl)-D-alanyl]-quinolone-a] showed an IC50 [1] of 6000 nM, an IC50 [2] of 15000 nM and an IC50 [3] of 4000 nM.

In the case of `NCCC(NC(=S)Nc1ccc(O)cc1)C(=O)NC1C=CCC2CN(c3c(F)cc4c(=O)c(C(=O)O)cn(C5CC5)c4c3Cl)CC21` (racemic) [2.3), N-[N^α-(4-Hydroxy-phenylamino-thiocarbonyl)-α,γ-diaminobutyryl]-quinolone-a, hydrochloride], the IC50 [1] is reported as 700 nM, the IC50 [2] is reported as 900 nM and the IC50 [3] is reported as 200 nM.

`O=C(O)c1cn(C2CC2)c2c(Cl)c(N3CC4CC=CC(NC(=O)C(CCCCNC(=S)Nc5ccc(O)cc5)NC(=S)Nc5ccc(O)cc5)C4C3)c(F)cc2c1=O` (racemic) [2.5), N-[N^α,N^ε-bis-(4-Hydroxy-phenylamino-thiocarbonyl)-D-lysyl]-quinolone-a] gave an IC50 [1] greater than 200000 nM, an IC50 [2] of 200000 nM and an IC50 [3] of 200000 nM.

`NCCCC(NC(=S)Nc1ccc(O)cc1)C(=O)NC1C=CCC2CN(c3c(F)cc4c(=O)c(C(=O)O)cn(C5CC5)c4c3Cl)CC21` (racemic) [2.6), N-[N^α-(4-Hydroxy-phenylamino-thiocarbonyl)-ornithyl]-quinolone-a, hydrochloride] was tested, and the IC50 [1] was 300 nM, the IC50 [2] was 200 nM and the IC50 [3] was 60 nM.

`NCCCCC(NC(=S)Nc1ccc(N=C=S)cc1)C(=O)NC1C=CCC2CN(c3c(F)cc4c(=O)c(C(=O)O)cn(C5CC5)c4c3Cl)CC21` (racemic) [2.8), N-[N^α-(4-Isothiocyanato-phenylamino-thiocarbonyl)-lysyl]-quinolone-a] gave an IC50 [1] of 100 nM, an IC50 [2] of 200 nM and an IC50 [3] of 100 nM.

Work on `NCCCCC(NC(=S)Nc1ccc(C(=O)O)cc1)C(=O)NC1C=CCC2CN(c3c(F)cc4c(=O)c(C(=O)O)cn(C5CC5)c4c3Cl)CC21` (racemic) [2.9), N-[N^α-(4-Carboxy-phenylamino-thiocarbonyl)-lysyl]-quinolone-a] yielded an IC50 [1] of 2000 nM, an IC50 [2] of 2000 nM and an IC50 [3] of 1000 nM.

Work on `CN(C(=S)NC(CCCCN)C(=O)NC1C=CCC2CN(c3c(F)cc4c(=O)c(C(=O)O)cn(C5CC5)c4c3Cl)CC21)c1ccccc1` (racemic) [2.10), N-[N^α-(Phenyl-methyl-amino-thiocarbonyl)-lysyl]-quinolone-a] yielded an IC50 [1] of 2000 nM, an IC50 [2] of 2000 nM and an IC50 [3] of 400 nM.

`CC(NC(=O)C(CCCCN)NC(=S)Nc1ccc(O)cc1)C(=O)NC1C=CCC2CN(c3c(F)cc4c(=O)c(C(=O)O)cn(C5CC5)c4c3Cl)CC21` (racemic) [2.11), N-[N^α-(4-Hydroxy-phenylamino-thiocarbonyl)-lysyl-D-alanyl]-quinolone-a] showed an IC50 [1] of 150000 nM, an IC50 [2] of 60000 nM and an IC50 [3] of 30000 nM.

Work on `NCCCC[C@H](NC(=S)Nc1ccc(O)cc1)C(=O)Nc1ccc2c(c1)CN1C(=O)c3ccccc3C1=N2` [1.2), N-[N^α-(4-Hydroxy-phenylamino-thiocarbonyl)-lysyl]-batracylin] yielded an IC50 [1] of 40000 nM and an IC50 [2] of 25000 nM.

In the case of `NC(CCCCNC(=S)Nc1ccc(O)cc1)C(=O)Nc1ccc2c(c1)CN1C(=O)c3ccccc3C1=N2` (centres unmarked) [1.3), N-[N^ε-(4-Hydroxy-phenylamino-thiocarbonyl)-lysyl]-batracylin], the IC50 [1] is reported as 70000 nM and the IC50 [2] is reported as 45000 nM.

With `C[C@@H](NC(=O)[C@H](CCCCN)NC(=S)Nc1ccc(O)cc1)C(=O)Nc1ccc2nc3n(c(=O)c2c1)Cc1ccccc1-3` [1.4), N-[N^α-(4-Hydroxy-phenylamino-thiocarbonyl)-lysyl-D-alanyl]-batracylin] the IC50 [1] was 40000 nM, the IC50 [2] was 40000 nM and the IC50 [3] was 30000 nM.

`CC(NC(=O)C(CO)NC(=S)Nc1ccc(O)cc1)C(=O)Nc1ccc2c(c1)CN1C(=O)c3ccccc3C1=N2` [1.5), N-[N-(4-Hydroxy-phenylamino-thiocarbonyl)-seryl-D-alanyl]-batracylin] showed an IC50 [1] of 400000 nM and an IC50 [2] of 250000 nM.

`CC(NC(=O)C(CCC(=O)O)NC(=S)Nc1ccc(O)cc1)C(=O)Nc1ccc2nc3n(c(=O)c2c1)Cc1ccccc1-3` [1.6), N-[N-(4-Hydroxy-phenylamino-thiocarbonyl)-glutamyl-D-alanyl]-batracylin] showed an IC50 [1] of 800000 nM and an IC50 [2] of 550000 nM.

With `COc1cccc2c1C(=O)c1c(O)c3c(c(O)c1C2=O)C[C@@](O)(C(=O)CO)C[C@@H]3O[C@H]1C[C@H](NC(=O)C(C)NC(=O)C(CCCCN)NC(=S)Nc2ccc(O)cc2)[C@H](O)[C@H](C)O1` (stereo partly drawn) [3), N-[N^α-(4-Hydroxy-phenylamino-thiocarbonyl)-lysyl-alanyl]-doxorubicin] the IC50 [1] was 2000 nM, the IC50 [2] was 3000 nM and the IC50 [3] was 1000 nM.

In the case of `CC[C@@]1(OC(=O)C(C)NC(=O)C(CCCCN)NC(=S)Nc2ccc(O)cc2)C(=O)OCc2c1cc1n(c2=O)Cc2cc3ccccc3nc2-1` (stereo partly drawn) [4.1), 20-O-[N^α-(4-Hydroxy-phenylamino-thiocarbonyl)-lysyl-alanyl]-camptothecin], the IC50 [1] is reported as 20 nM, the IC50 [2] is reported as 10 nM and the IC50 [3] is reported as 100 nM.

Work on `CCC1(OC(=O)C(CC(C)C)NC(=O)C(CCCCN)NC(=S)Nc2ccc(O)cc2)C(=O)OCc2c1cc1n(c2=O)Cc2cc3ccccc3nc2-1` (stereo not drawn) [4.2), 20-O-[N^α-(4-Hydroxy-phenylamino-thiocarbonyl)-lysyl-leucyl]-camptothecin, hydrochloride] yielded an IC50 [1] of 60 nM, an IC50 [2] of 70 nM and an IC50 [3] of 300 nM.

`CCC1(OC(=O)C(Cc2ccccc2)NC(=O)C(CCCCN)NC(=S)Nc2ccc(O)cc2)C(=O)OCc2c1cc1n(c2=O)Cc2cc3ccccc3nc2-1` (stereo not drawn) [4.3), 20-O-[N^α-(4-Hydroxy-phenylamino-thiocarbonyl)-lysyl-phenyl-alanyl]-camptothecin] was tested, and the IC50 [1] was 20 nM, the IC50 [2] was 20 nM and the IC50 [3] was 100 nM.

For `CC[C@@]1(OC(=O)C(NC(=O)C(CCCCN)NC(=S)Nc2ccc(C(=O)O)cc2)C(C)C)C(=O)OCc2c1cc1n(c2=O)Cc2cc3ccccc3nc2-1` (stereo partly drawn) [4.5), 20-O-[N^α-(4-Carboxy-phenylamino-thiocarbonyl)-lysyl-valyl]-camptothecin, hydrochloride], the IC50 [1] was 200 nM, the IC50 [2] was 300 nM and the IC50 [3] was 800 nM.

`CC[C@@]1(OC(=O)C(NC(=O)C(CCCCN)NC(=S)Nc2ccc(Cl)cc2)C(C)C)C(=O)OCc2c1cc1n(c2=O)Cc2cc3ccccc3nc2-1` (stereo partly drawn) [4.6), 20-O-[N^α-(4-Chloro-phenylamino-thiocarbonyl)-lysyl-valyl]-camptothecin, hydrochloride] was tested, and the IC50 [1] was 150 nM, the IC50 [2] was 200 nM and the IC50 [3] was 500 nM.

With `CC[C@@]1(OC(=O)[C@@H](NC(=O)[C@H](CCCCN)NC(=S)Nc2ccccc2)C(C)C)C(=O)OCc2c1cc1n(c2=O)Cc2cc3ccccc3nc2-1` [4.7), 20-O-[N^α-(Phenylamino-thiocarbonyl)-lysyl-valyl]-camptothecin, hydrochloride] the IC50 [1] was 60 nM, the IC50 [2] was 100 nM and the IC50 [3] was 300 nM.

With `CCC1(OC(=O)C(NC(=O)C(CCCCN)NC(=S)N(C)c2ccccc2)C(C)C)C(=O)OCc2c1cc1n(c2=O)Cc2cc3ccccc3nc2-1` (stereo not drawn) [4.8), 20-O-[N^α-(Phenyl-methyl-amino-thiocarbonyl)-lysyl-valyl]-camptothecin, hydrochloride] the IC50 [1] was 150 nM, the IC50 [2] was 300 nM and the IC50 [3] was 800 nM.
